Data as given in ChEMBL document CHEMBL4622861, “Synthesis and biological evaluation of 6-nitro-1,2,4-triazoloazines containing polyphenol fragments possessing antioxidant and antiviral activity” (Bioorg Med Chem Lett, 2020).
pIC50: −log10 of the molar value. Activity calls are given as the source filed them. The rule behind the calls is not given here.

How the values were obtained:
[1] = Inhibition of M2 proton channel in Influenza A virus (A/Puerto Rico/8/34(H1N1)) infected in MDCK cells assessed as inhibition of viral infection; format: cell-based, Influenza A virus (A/Puerto Rico/8/1934(H1N1))
[2] = test system: M2 proton channel of Influenza A virus; assay: Selectivity index, ratio of CC50 for MDCK cells to IC50 for M2 proton channel in Influenza A virus (A/Puerto Rico/8/34(H1N1) ) infected in MDCK cells assessed as inhibition of viral infection; format: toxicity, cell-based; settings: dog, read-out: Ratio CC50/IC50
[3] = Cytotoxicity against MDCK cells; format: cell-based, Canis lupus familiaris; settings: dog
[4] = Antioxidant activity in K3[Fe(CN)6]/K4[Fe(CN)6] system by potentiometric method; format: functional
Influenza A virus [5] = assay: Antiviral activity against Influenza A virus (A/Puerto Rico/8/34(H1N1)) infected in MDCK cells assessed as reduction in viral titer at 50 uM measured after 4 hrs post-infection; format: functional, organism-based; settings: A/Puerto Rico/8/1934(H1N1)
Influenza A virus [6] = assay: Antiviral activity against Influenza A virus (A/Puerto Rico/8/34(H1N1)) infected in MDCK cells assessed as reduction in viral titer at 100 uM measured at 0 to 2 hrs post-infection; format: functional, organism-based; settings: A/Puerto Rico/8/1934(H1N1)
Influenza A virus [7] = assay: Antiviral activity against Influenza A virus (A/Puerto Rico/8/34(H1N1)) infected in MDCK cells assessed as reduction in viral titer at 100 uM measured at 0 to 8 hrs post-infection; format: functional, organism-based; settings: A/Puerto Rico/8/1934(H1N1)
[8] = target: Hemagglutinin (Influenza A virus (A/Puerto Rico/8/1934(H1N1))) (UniProt P03452); assay: Inhibition of Hemagglutinin in Influenza A virus (A/Puerto Rico/8/34(H1N1)) assessed as reduction in virus-induced agglutination of chicken erythrocytes at 100 uM
Chain of Hemagglutinin (Influenza A virus (A/Puerto Rico/8/1934(H1N1))) (P03452 whole entry): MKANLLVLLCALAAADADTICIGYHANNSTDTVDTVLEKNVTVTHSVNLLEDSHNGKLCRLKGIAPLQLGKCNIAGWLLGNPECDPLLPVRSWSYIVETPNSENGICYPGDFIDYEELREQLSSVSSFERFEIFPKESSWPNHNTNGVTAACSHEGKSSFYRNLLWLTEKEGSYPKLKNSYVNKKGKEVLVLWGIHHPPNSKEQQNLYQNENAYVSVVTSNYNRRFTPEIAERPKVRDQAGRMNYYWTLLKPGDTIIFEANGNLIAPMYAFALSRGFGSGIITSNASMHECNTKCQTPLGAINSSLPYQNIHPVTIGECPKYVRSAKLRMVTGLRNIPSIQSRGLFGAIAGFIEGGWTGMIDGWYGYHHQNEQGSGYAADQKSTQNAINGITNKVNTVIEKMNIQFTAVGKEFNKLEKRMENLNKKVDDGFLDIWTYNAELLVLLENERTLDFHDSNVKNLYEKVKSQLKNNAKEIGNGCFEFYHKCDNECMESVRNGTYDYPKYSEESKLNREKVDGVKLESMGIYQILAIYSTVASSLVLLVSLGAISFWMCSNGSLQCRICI

Influenza A virus [9] = assay: Antiviral activity against Influenza A virus (A/Puerto Rico/8/34(H1N1)) infected in MDCK cells assessed as reduction in viral titer at 50 uM measured at 0 to 8 hrs post-infection; format: functional, organism-based; settings: A/Puerto Rico/8/1934(H1N1)
[10] = target: Hemagglutinin (Influenza A virus (A/Puerto Rico/8/1934(H1N1))) (UniProt P03452); assay: Inhibition of Hemagglutinin in Influenza A virus (A/Puerto Rico/8/34(H1N1)) assessed as reduction in virus-induced agglutination of chicken erythrocytes at 50 uM
Influenza A virus [11] = assay: Antiviral activity against Influenza A virus (A/Puerto Rico/8/34(H1N1)) infected in MDCK cells assessed as reduction in viral titer at 50 uM measured at 0 to 2 hrs post-infection; format: functional, organism-based; settings: A/Puerto Rico/8/1934(H1N1)
Influenza A virus [12] = assay: Antiviral activity against Influenza A virus (A/Puerto Rico/8/34(H1N1)) infected in MDCK cells assessed as reduction in viral titer at 100 uM measured after 4 hrs post-infection; format: functional, organism-based; settings: A/Puerto Rico/8/1934(H1N1)

| Structure (SMILES) | pIC50 [1] | selectivity ratio [2] | CC50 [3] [µM] | further results |
| --- | --- | --- | --- | --- |
| O=[N+]([O-])C1=CNc2ncnn2C1c1ccc(O)cc1O (configuration not stated) | 3.78 | > 7 | > 1090 | – |
| O=[N+]([O-])C1=CNc2nc(-c3ccco3)nn2C1c1ccc(O)c(O)c1O (configuration not stated) | 4.01 | 3 | 317 | – |
| O=[N+]([O-])C1=CNc2ncnn2C1O (configuration not stated) | 4.55 | 4 | 123 | – |
| O=[N+]([O-])C1=CNc2ncnn2C1c1ccc(O)c(O)c1O (configuration not stated) | 3.23 | 1 | 405 | – |
| CSc1nc2n(n1)C(c1ccc(O)cc1O)C([N+](=O)[O-])=NN2 (configuration not stated) | 4.74 | 11 | 201 | Activity [4]: inactive |
| O=[N+]([O-])C1=NNc2ncnn2C1c1ccc(O)c(O)c1 (configuration not stated) | 2.96 | 2 | > 1640 | – |
| O=[N+]([O-])C1=NNc2ncnn2C1c1ccc(O)c(O)c1O (configuration not stated) | 4.07 | 3 | 228 | – |
| CCC(CC)O[C@@H]1C=C(C(=O)O)C[C@H](N)[C@H]1NC(C)=O [OSELTAMIVIR CARBOXYLATE] | 4.89 | 5 | 66 | – |
| O=[N+]([O-])C1=NNc2ncnn2C1c1c(O)cc(O)cc1O (configuration not stated) | 4.59 | 5 | 119 | – |
| CSc1nc2n(n1)C(c1c(O)cc(O)cc1O)C([N+](=O)[O-])=NN2 (configuration not stated) | 4.64 | 39 | 877 | – |
| O=[N+]([O-])C1=CNc2nc(-c3ccco3)nn2C1c1ccc(O)c(O)c1 (configuration not stated) | 4.00 | > 12 | > 1200 | – |
| O=[N+]([O-])C1=CNc2nc(C(F)(F)F)nn2C1c1ccc(O)c(O)c1 (configuration not stated) | 4.68 | 57 | 1200 | – |
| O=[N+]([O-])C1=NNc2nc(C(F)(F)F)nn2C1c1ccc(O)cc1O (configuration not stated) | 4.48 | 3 | 108 | – |
| O=[N+]([O-])C1=CNc2nc(-c3ccco3)nn2C1c1ccc(O)cc1O (configuration not stated) | 5.05 | 14 | 119 | – |
| CC(N)C12CC3CC(CC(C3)C1)C2 (configuration not stated) [RIMANTADINE] | 6.52 | > 667 | > 200 | – |
| CSc1nc2n(n1)C(O)C([N+](=O)[O-])=NN2 (configuration not stated) | 4.82 | 7 | 99 | – |

| Structure (SMILES) | pIC50 [1] | selectivity ratio [2] | CC50 [3] [µM] | further results |
| --- | --- | --- | --- | --- |
| O=[N+]([O-])C1=CNc2nc(C(F)(F)F)nn2C1c1ccc(O)c(O)c1O (configuration not stated) | 4.33 | 8 | 373 | – |
| O=[N+]([O-])C1=CNc2ncnn2C1c1c(O)cc(O)cc1O (configuration not stated) | 4.70 | > 51 | > 1030 | Activity (Influenza A virus [5]): Active; Activity (Influenza A virus [6]): Active; Activity (Influenza A virus [7]): Active; inhibition [8]: Active |
| O=[N+]([O-])C1=CNc2nc(-c3ccco3)nn2C1c1c(O)cc(O)cc1O (configuration not stated) | 4.15 | 4 | 280 | – |
| O=[N+]([O-])C1=CNc2nc(C(F)(F)F)nn2C1O (configuration not stated) | 4.96 | 3 | 33 | – |
| CSc1nc2n(n1)C(c1ccc(O)c(O)c1O)C([N+](=O)[O-])=NN2 (configuration not stated) | 4.59 | 8 | 196 | Activity [4]: inactive |
| O=[N+]([O-])C1=NNc2nc(C(F)(F)F)nn2C1c1ccc(O)c(O)c1O (configuration not stated) | 5.00 | 7 | 67 | – |
| O=[N+]([O-])C1=NNc2nc(C(F)(F)F)nn2C1O (configuration not stated) | 4.96 | 4 | 40 | – |
| CSc1nc2n(n1)C(c1ccc(O)c(O)c1)C([N+](=O)[O-])=NN2 (configuration not stated) | 4.36 | 8 | 362 | Activity (Influenza A virus [9]): Active; inhibition [10]: Active; Activity (Influenza A virus [11]): Active; Activity (Influenza A virus [12]): Active |
| O=[N+]([O-])C1=CNc2ncnn2C1c1ccc(O)c(O)c1 (configuration not stated) | 4.38 | 9 | 368 | – |
| O=[N+]([O-])C1=CNc2nc(C(F)(F)F)nn2C1c1ccc(O)cc1O (configuration not stated) | 5.22 | 43 | 258 | – |
| O=[N+]([O-])C1=NNc2nc(C(F)(F)F)nn2C1c1c(O)cc(O)cc1O (configuration not stated) | 4.57 | 9 | 252 | – |
| O=[N+]([O-])C1=NNc2nc(C(F)(F)F)nn2C1c1ccc(O)c(O)c1 (configuration not stated) | < 3.92 | 2 | 183 | – |
| O=[N+]([O-])C1=CNc2nc(C(F)(F)F)nn2C1c1c(O)cc(O)cc1O (configuration not stated) | 4.57 | 32 | 838 | – |
| O=[N+]([O-])C1=CNc2nc(-c3ccco3)nn2C1 | 5.05 | 13 | 108 | – |
| O=[N+]([O-])C1=NNc2ncnn2C1c1ccc(O)cc1O (configuration not stated) | 4.47 | 3 | 90 | Activity [4]: inactive |
| O=[N+]([O-])C1=NNc2ncnn2C1O (configuration not stated) | < 4.44 | 2 | 87 | – |
